Test results published in patent US20220220533A1, “METHOD OF DIAGNOSING AND MONITORING SUBSTANCE ADDICTION OR BEHAVIORAL ADDICTION USING C-KIT BIOMARKER” (Wuhan University, priority 2019, published 2022).
Counter-ions that a name gives are not always drawn.

Assays:
[1] = tested on: high-sugar and high-fat food CPP; test: High-sugar and high-fat food CPP after environmental or unconditioned re-exposure, nucleus accumbens microinjection; assay type: in vivo, rat; details: rats
morphine CPP [2] = test: Formation of morphine conditioned place preference (CPP) in mice; assay type: in vivo; details: imatinib mesylate 45 mg/kg i.p. 30 min before morphine 15 mg/kg s.c., test day 10
gambling behavior [3] = test: Dose effect on gambling behavior in rats under gambling task (rGT) conditions; assay type: in vivo, rat
Protocol: A gambling behavior model of rats was established: firstly, the animals were acclimated to the operating chamber twice a day for 30 min each time, during which sucrose granules were placed on the reaction wells and the food bank. After acclimation, animals were trained to poke their noses into one of the luminescent reaction wells within 10 s to obtain a reward. Spatial positions of the stimulus light would appear in different wells of wells 1, 2, 4 and 5 in different experiments. Each session consisted of 100 trials lasting approximately 30 min. Animals were then trained 7 times for forced-choice rGT (or an rGT variant of the control group), and then underwent a completely free-choice task. This ensured that all animals had the same experience under the four reinforcement conditions and were designed to prevent simple prejudice against specific wells. The percentage of trials in which animals chose a particular option was calculated according to the formula in reference: Choices of a particular option/Total choices of 100 (Di C P, Manvich D F, Pushparaj A, et al. Effects of disulfiram on choice behavior in a rodent gambling task: association with catecholamine levels[J]. Psychopharmacology, 2018, 235(1):23-35). Each experiment lasted 30 min and experimental subjects responded with a nose poke on the illuminated food bank, which turned off the tray light and triggered the initiation of a 5-s intertrial interval (ITT). At the end of the ITI, wells 1, 2, 4 and 5 were illuminated for 10 s (in the forced-choice version of the task used in the training, only one well was illuminated).
Explanation to the above table: four wells in the experimental apparatus were respectively provided with different reward probability and penalty probability, as well as corresponding reward sucrose amount and penalty time.
After training, the rats were given with drugs. […] The rats in the direct administration group were directly given with imatinib (1, 5, 10, 20 and 30 mg/kg, ip) or saline (1 mL/kg, ip) without being placed in the experimental device. […]

gambling behavior [4] = test: Rat gambling behavior model (rGT), Example 9; assay type: in vivo; details: rats, imatinib mesylate 30 mg/kg
Protocol: A gambling behavior model of rats was established: animals were first accustomed to the operating chambers twice a day for 30 min each time, during which sucrose granules were placed on the reaction wells and the food banks. Animals were then trained to poke their noses into one of the luminescent reaction wells within 10 s to obtain a reward. Space positions of the stimulus light were varied in different experiments of wells 1, 2, 4 and 5. Each session consisted of 100 trials lasting approximately 30 min. After 5 trials, animals continued to complete 100 trials. Animals were then trained 7 times for forced-choice rGT (or an rGT variant of the control group), followed by a completely free-choice task, ensuring that all animals had the same experience in the four reinforcement conditions and were designed to prevent simple prejudice against specific wells. The percentage of animals selected for a particular option trial was calculated according to the formula […].

morphine CPP [5] = details: mice
c-Kit [6] = target: T1, c-Kit (Rattus norvegicus, UniProt F7EWK5); assay type: in vivo; details: rats, imatinib mesylate 30 mg/kg i.p. 30 min before morphine or saline
T1 construct: from tissue; host or cells: rat brain (nucleus accumbens, prefrontal cortex, hippocampus and other regions)
T1 sequence (F7EWK5 26-978): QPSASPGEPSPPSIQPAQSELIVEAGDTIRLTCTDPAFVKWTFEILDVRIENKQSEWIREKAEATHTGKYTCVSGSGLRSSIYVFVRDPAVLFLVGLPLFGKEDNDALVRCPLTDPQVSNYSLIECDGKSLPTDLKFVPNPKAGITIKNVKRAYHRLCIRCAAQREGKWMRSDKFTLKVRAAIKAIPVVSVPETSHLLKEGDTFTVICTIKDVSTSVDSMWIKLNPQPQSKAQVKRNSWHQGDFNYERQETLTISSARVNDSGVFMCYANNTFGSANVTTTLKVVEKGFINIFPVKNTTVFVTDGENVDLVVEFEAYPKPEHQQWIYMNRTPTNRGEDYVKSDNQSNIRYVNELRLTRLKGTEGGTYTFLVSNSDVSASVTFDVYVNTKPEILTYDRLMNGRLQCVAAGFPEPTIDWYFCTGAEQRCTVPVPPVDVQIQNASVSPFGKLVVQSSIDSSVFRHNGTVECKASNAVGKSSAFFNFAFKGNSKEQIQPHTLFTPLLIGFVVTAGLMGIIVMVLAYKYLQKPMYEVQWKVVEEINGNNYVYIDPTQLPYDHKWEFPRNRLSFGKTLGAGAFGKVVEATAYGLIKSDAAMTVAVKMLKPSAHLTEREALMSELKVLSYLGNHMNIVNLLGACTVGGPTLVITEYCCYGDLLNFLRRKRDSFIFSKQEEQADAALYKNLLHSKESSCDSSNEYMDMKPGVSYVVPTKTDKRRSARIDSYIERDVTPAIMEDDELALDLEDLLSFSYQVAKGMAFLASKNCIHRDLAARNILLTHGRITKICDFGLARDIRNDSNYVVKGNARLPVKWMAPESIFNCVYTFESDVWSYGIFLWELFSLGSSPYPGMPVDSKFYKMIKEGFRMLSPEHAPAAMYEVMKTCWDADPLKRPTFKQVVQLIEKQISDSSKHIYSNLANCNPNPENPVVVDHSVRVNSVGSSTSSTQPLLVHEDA
Protocol: (§1) After 1 h, anesthesia and perfusion were performed, a brain tissue was fixed with a 4% paraformaldehyde solution, dehydrated in alcohol solutions with different concentrations, hyalinized in xylene, embedded in paraffin, and then cut into 3 μm-thick sections. Tissues were deparaffinized, boiled in 0.01M sodium citrate buffer (pH 6.0) for 10-15 min, and cooled in cold water to room temperature.

c-Kit [7] = target: T1, c-Kit; assay type: in vivo; details: gambling rats, imatinib mesylate 30 mg/kg
[8] = tested on: high-sugar and high-fat food CPP; test: High-sugar and high-fat food CPP after environmental or unconditioned re-exposure, intraperitoneal administration; details: rats
[9] = tested on: high-sugar and high-fat food CPP; test: Formation of conditioned place preference on high-sugar and high-fat food in rats; assay type: in vivo, rat; details: imatinib mesylate 1, 5, 10, 20 and 30 mg/kg i.p.
c-Kit [10] = assay type: in vivo, rat
Protocol: Under the guidance of NIR-II fluorescence imaging, dynamic changes of the brain regions of the rats were dynamically monitored and photographed at 2 h, 6 h, 8 h and 12 h with a near-infrared II region imaging camera, respectively, so as to indicate changes in a phosphorylation level of c-Kit protein.

c-Kit [11] = assay type: in vivo, rat; details: rats, 1 h after acute morphine 10 mg/kg s.c., compared with normal rats
Protocol: as §1

[12] = rats exposed to the environment, 10, 20 and 30 mg/kg ip, compared to control group

Structure (SMILES) | food-seeking behavior caused by the environment and food ([1]; nucleus accumbens microinjection 4 μg/0.5 μL) | ignition of CPP ([1]; nucleus accumbens microinjection, after 2 weeks) | formation of conditioned place preference (CPP score) (morphine CPP [2]) | effect on gambling choice in rGT (gambling behavior [3]; rats as directly administered, any dose (1-30 mg/kg ip)) | choice at P4 in rGT (gambling behavior [3]; [12]) | optimal choice at P2 in rGT (gambling behavior [3]; [12]) | gambling behavior (gambling behavior [4]) | CPP Score after re-exposure to environmental cues (morphine CPP [5]; imatinib mesylate 45 mg/kg i.p. 30 min before re-exposure) | ignition of morphine CPP (morphine CPP [5]; small dose of morphine 5 mg/kg i.p., after 1 week) | phosphorylation activity of c-Kit protein in nucleus accumbens, prefrontal cortex and hippocampus (c-Kit [6]) | phosphorylation level of c-Kit (c-Kit [7]) | ignition of CPP ([8]; i.p. administration, small amount of high-sugar and high-fat food, after 2 weeks) | food-seeking behaviors induced by environment and food ([8]; imatinib mesylate 1, 5, 10, 20 and 30 mg/kg i.p. after re-exposure) | formation of conditioned place preference on high-sugar and high-fat food [9] | time at which enrichment intensity of the probes reached a peak (c-Kit [10]; rats after acute morphine administration) [h] | phosphorylation activity of c-Kit in the brains of the rats (brain brightness) (c-Kit [10]; rats, acute morphine 10 mg/kg s.c., contrast with normal saline group) | phosphorylation level of c-Kit protein in nucleus accumbens regions (c-Kit [11]) | phosphorylation level of c-Kit protein in prefrontal cortex, hippocampus and other regions (c-Kit [11])
Cc1ccc(NC(=O)c2ccc(CN3CCN(C)CC3)cc2)cc1Nc1nccc(-c2cccnc2)n1 [imatinib mesylate] | inhibited | not ignited | could not be formed normally | no significant effect | reduced | significantly increased | significantly eliminated | significantly reduced | not ignited | significantly decreased | significantly inhibited | not ignited | inhibited | inhibited |  |  |  | 
CN1CC[C@]23c4c5ccc(O)c4O[C@H]2[C@@H](O)C=C[C@H]3[C@H]1C5 [morphine] |  |  |  |  |  |  |  |  |  |  |  |  |  |  | 6 | significantly enhance | significantly increased | no significant change
